Earlier results, collected in US7388012B2, “(Hydrazido)(amino)thiophene compounds” (OSI Pharmaceuticals, Inc., priority 2004, dated 2008).
Counter-ions that a name gives are not always drawn.

Assays:
[1] = system: MO7e human leukemia cells
[2] = system: MO7e human leukemia cells; remark: listed apart in the source

## Cc1ccc(NC(=O)c2ccc(CN3CCN(C)CC3)cc2)cc1Nc1nccc(-c2cccnc2)n1 [Gleevec, imatinib mesylate]
[1]; Kit ligand-stimulated
  Kit ligand-stimulated growth of MO7e human leukemia cells: inhibited
[1]; Kit ligand-stimulated conditions
  apoptosis of MO7e human leukemia cells: induces apoptosis
[2]
  GM-CSF stimulated growth of MO7e human leukemia cells: not affected
